Test results published in patent US20090018111A1, “Novel Antimicrobial Medicament” (priority 2004, published 2009).
Read-outs that look alike come from different tables or passages of the source.

How the values were obtained:
[1] = system: E. coli ML1410; assay: Sensitivity test (agar dilution); format: cell-based, Escherichia coli; settings: Escherichia coli, E. coli ML1410
Outline: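 Under the Japan Chemotherapeutic Society protocol, MIC was recorded as the lowest agar concentration, in twofold dilutions in MHA, preventing growth of about 10^6 CFU/ml inocula. FIC indices were derived for drug pairs.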

[2] = system: 18 bacteria (27 standard strains); assay: Sensitivity test, combination effect over the standard strains; format: cell-based; settings: in combination with compound 1, standard strains
Procedure: The antibacterial activities were tested against various 18 bacteria (27 standard strains) which are representative bacteria caused clinically infectious disease (Staphylococcus aureus 3 strains, Staphylococcus epidermidis 1 strain, Micrococcus luteus 1 strain, Streptococcus pyogenes 1 strain, Enterococcus faecalis 1 strain, Enterococcus faecium 1 strain, Bacillus subtilis 1 strain, Escherichia coli 3 strains, Klebsiella pneumoniae 1 strain, Proteus mirabilis 1 strain, Proteus vulgaris 2 strains, Pseudomonas aeruginosa 3 strains, Serratia marcescens 2 strains, Enterobacter aerogenes 1 strain, Stenotrophomonas maltophilia 1 strain, Enterobacter cloacae 1 strain, Citrobacter freundii 1 strain, Moraxella catarrhalis 2 strains).
According to the standard method of Japan Chemotherapeutic Society (Chemotherapy, vol. […], p 76-79 (1981)) the test was carried out using the agar dilution method. After dissolving test samples in distilled water, agar medium containing the test samples was prepared in such a manner that the final concentration became twice serial dilution by pouring serially diluted combination drug solution or a single drug solution into agar medium. As agar medium was used Mueller Hinton Agar medium (MHA). Then, each strain was cultivated over night at 37° C. in an incubator and suspended in buffered saline solution with gelatin (BSG) in the concentration of about 10^6 CFU/ml. The suspension (about 5 μl) containing test strains was inoculated to the medium containing the test samples by Micro Planter.
When the sample is subjected to sensitivity test, this mixed solution was diluted by twice serial dilution method.
FIC index based on MIC value was calculated. […] Namely, when FIC index calculated by the following formula is equal or less than 1, the enhanced effect of the combination drug in said ratio is considered as positive. When FIC index is over 1, the enhanced effect of the combination drug in said ratio is considered as negative.
Formula of FIC index: FIC index=(MIC of Drug A in combination/MIC of Drug A alone)+(MIC of Drug B in combination/MIC of Drug B alone) N.C. in tables means being not calculated.

[3] = ML1410, drug alone, read-out: MIC alone

Row | Structure (SMILES) | MIC ([1]; ML1410, Concomitant (PAPM:SM = 1:1), read-out: MIC concomitant) [µg/mL] | MIC [1, 3] [µg/mL] | combination effect [2] | MIC ([1]; ML1410, Concomitant (PIPC:SM = 1:1), read-out: MIC concomitant) [µg/mL]
1 | CC(=N)N1CC[C@H](SC2=C(C(=O)O)N3C(=O)[C@H]([C@@H](C)O)[C@H]3C2)C1 [PAPM, panipenem] | 0.125 | 0.5 | the combination effect was recognized | 
2 | CCN1CCN(C(=O)N[C@@H](C(=O)N[C@@H]2C(=O)N3[C@@H]2SC(C)(C)[C@@H]3C(=O)O)c2ccccc2)C(=O)C1=O [PIPC, piperacillin] |  | 2 | antagonism was recognized | 0.125
